Activity calls are given as the source filed them. Bounds are passed on as bounds.

The nature of assay [1]: intracellular Trypanosoma cruzi inhibitors in host cells – cell-based, plate reader, cherry-pick samples, set 3, dose response (AID 651818).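 Further: compounds incubated with infected cells for about four days.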 The format is functional.
For assay [2], the target named is T1, Polyadenylate-binding protein 1 (Homo sapiens, UniProt P11940). As to the kind of experiment: PABP1 MLLE–PAM2 interaction inhibitors, dose response, miRNA deadenylation inhibitor project, biochemical, fluorescence polarization, Cy5-PAM2 peptide, secondary (AID 602260). The format is functional. Particulars: read-out: IC50_Mean.
In assay [3] the target is T1, Polyadenylate-binding protein 1. As to the kind of experiment: PABP1 MLLE–PAM2 binding inhibitor potency, dose response, biochemical, fluorescence polarization, FITC-PAM2 peptide (AID 602259). The format is functional. To be noted: read-out: IC50_Mean.
Another assay concerns the target T2, Caspase-6 (Homo sapiens, UniProt P55212).
T2 sequence (P55212 whole entry): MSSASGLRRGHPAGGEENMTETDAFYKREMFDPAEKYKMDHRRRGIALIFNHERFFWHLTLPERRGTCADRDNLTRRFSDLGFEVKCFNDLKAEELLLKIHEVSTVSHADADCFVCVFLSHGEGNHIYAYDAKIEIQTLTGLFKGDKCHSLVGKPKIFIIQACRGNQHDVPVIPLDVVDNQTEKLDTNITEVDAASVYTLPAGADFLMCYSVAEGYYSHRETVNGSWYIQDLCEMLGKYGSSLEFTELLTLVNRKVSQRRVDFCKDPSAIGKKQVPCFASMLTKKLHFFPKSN
The experiment in a line: human caspase-6 inhibitors, dose response, biochemical, VEID-R110 fluorescence, cherry-pick (AID 720632).

The subject of a further assay is Vero. As to the kind of experiment: cells. The format is functional. To be noted: Chlorocebus sabaeus.
A short description of assay [4]: cells. The format is functional, cell-based.
Assay [5] is described as follows: inhibitors of intracellular T. cruzi replication, confirmation, NIH3T3 host cells, beta-gal luminescence (AID 2044).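 Further: intracellular parasites grown in NIH/3T3 mouse fibroblasts as host cells; luminescent beta-galactosidase reporter signal from transgenic T. cruzi replicating inside host cells; inhibitors lower the luminescence signal.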 It counts as functional, cell-based.
A short description of assay [6]: cells. The format is functional, cell-based. This is another data set of the same source.
Assay [7] in a line: cytotoxicity toward NIH3T3 fibroblasts, dose response, counter-screen, cell-based, ATP luminescence, mouse fibroblasts (AID 2010).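 Further: cells exposed to compound for about 90 hours before reading.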 The format is functional.
A further assay concerns INS1. As to the kind of experiment: beta cell apoptosis inhibitors, cytokine rescue, dose response, luminescence, retest (AID 449756).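 Further: cell death triggered by IL-1 beta plus TNF-alpha plus IFN-gamma mixture; protective hits raise ATP signal compared with cytokine alone wells.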 The format is functional, cell-based. Particulars: Rattus norvegicus.
The target of a further assay is T3, Caspase-3 (Homo sapiens, UniProt P42574).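 Further: Dose-response selectivity test against caspase-3 for candidate inhibitors of sentrin-specific proteases (SENPs).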
T3 sequence (P42574 whole entry): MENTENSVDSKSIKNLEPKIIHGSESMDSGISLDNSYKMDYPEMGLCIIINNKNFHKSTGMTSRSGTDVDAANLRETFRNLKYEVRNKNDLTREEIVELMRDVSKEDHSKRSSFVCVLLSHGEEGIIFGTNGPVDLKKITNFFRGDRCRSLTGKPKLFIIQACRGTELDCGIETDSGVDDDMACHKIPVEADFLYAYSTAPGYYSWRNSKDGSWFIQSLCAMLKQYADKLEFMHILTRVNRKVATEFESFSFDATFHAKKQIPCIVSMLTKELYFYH
The format is functional.

Assay [8] addresses T4, Sentrin-specific protease 7 (Homo sapiens, UniProt Q9BQF6).
T4 sequence (Q9BQF6 whole entry): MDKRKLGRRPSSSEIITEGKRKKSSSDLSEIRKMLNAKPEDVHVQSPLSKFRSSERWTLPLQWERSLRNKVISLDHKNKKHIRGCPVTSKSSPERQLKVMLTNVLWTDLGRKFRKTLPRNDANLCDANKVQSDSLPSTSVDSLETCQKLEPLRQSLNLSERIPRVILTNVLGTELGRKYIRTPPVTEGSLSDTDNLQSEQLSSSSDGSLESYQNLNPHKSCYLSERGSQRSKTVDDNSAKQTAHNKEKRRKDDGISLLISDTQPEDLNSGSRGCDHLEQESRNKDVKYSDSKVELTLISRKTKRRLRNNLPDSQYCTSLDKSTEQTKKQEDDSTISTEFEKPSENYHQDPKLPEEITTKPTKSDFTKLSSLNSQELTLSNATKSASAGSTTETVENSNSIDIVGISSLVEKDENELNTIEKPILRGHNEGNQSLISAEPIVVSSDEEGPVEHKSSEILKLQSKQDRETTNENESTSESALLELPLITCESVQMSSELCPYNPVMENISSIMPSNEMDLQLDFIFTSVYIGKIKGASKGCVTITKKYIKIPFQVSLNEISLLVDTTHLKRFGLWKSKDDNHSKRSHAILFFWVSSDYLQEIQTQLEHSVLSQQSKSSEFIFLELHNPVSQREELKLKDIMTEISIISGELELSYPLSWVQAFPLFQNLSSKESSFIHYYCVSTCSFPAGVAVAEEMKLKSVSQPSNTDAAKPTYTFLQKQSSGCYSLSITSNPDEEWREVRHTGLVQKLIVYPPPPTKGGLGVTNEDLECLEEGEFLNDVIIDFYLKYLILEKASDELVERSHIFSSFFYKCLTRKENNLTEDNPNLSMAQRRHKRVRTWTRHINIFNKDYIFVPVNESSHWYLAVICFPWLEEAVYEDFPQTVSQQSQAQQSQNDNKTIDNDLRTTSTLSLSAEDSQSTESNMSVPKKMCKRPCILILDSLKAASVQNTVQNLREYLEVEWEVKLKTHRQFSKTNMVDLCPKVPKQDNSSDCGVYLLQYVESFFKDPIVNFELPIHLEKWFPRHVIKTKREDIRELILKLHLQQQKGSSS
The format is functional.

Assay [9] addresses T5, Sentrin-specific protease 6 (Homo sapiens, UniProt Q9GZR1).
T5 sequence (Q9GZR1 whole entry): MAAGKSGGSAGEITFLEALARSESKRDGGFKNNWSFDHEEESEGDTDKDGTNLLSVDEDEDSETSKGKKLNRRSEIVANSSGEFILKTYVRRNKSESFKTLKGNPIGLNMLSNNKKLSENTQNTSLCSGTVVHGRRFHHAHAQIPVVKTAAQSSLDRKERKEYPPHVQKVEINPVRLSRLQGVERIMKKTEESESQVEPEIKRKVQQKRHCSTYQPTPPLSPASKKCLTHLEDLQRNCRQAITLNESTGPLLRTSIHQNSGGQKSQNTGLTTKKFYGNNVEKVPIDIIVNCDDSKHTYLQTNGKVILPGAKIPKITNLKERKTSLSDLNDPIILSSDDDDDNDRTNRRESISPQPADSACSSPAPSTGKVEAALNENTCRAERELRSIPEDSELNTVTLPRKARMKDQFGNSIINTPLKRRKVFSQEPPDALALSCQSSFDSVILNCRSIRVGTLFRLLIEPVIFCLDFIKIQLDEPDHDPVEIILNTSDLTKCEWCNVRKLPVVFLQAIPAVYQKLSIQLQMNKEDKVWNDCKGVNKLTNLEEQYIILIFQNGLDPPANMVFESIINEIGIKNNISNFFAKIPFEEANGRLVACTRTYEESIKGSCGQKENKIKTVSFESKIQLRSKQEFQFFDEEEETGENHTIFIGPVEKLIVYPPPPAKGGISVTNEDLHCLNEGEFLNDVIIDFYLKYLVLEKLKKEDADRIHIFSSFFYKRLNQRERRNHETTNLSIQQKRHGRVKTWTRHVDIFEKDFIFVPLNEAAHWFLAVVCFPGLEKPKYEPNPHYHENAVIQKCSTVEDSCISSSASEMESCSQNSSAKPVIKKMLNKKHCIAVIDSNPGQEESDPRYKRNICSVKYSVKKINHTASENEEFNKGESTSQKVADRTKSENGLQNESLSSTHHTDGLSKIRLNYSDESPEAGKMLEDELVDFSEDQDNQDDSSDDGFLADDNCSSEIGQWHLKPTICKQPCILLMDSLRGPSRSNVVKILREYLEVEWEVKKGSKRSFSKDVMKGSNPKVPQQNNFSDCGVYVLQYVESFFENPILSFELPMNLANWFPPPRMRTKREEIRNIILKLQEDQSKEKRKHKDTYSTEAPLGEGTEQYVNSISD
It counts as functional.

Assay [10] deals with T6, Sentrin-specific protease 8 (Homo sapiens, UniProt Q96LD8).
T6 sequence (Q96LD8 whole entry): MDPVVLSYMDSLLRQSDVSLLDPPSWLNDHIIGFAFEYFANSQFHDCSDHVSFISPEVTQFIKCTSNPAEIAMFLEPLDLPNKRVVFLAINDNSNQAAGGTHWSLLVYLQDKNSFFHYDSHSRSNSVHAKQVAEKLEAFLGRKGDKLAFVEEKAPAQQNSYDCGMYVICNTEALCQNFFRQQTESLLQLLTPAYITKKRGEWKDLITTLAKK
The format is functional.

Assay [11] can be described thus: HEp-2 cell cytotoxicity, dose response, cytotoxicity control for RSV inhibitor project, HTS (AID 2410). The format is functional. Particulars: human respiratory syncytial virus.
The target in assay [12] is T7, Ubiquitin-conjugating enzyme E2 N (Homo sapiens, UniProt P61088).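 Further: Dose-response confirmation in a TR-FRET assay detecting UBC13-driven polyubiquitin chain formation, inhibition measured.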
T7 sequence (P61088 whole entry): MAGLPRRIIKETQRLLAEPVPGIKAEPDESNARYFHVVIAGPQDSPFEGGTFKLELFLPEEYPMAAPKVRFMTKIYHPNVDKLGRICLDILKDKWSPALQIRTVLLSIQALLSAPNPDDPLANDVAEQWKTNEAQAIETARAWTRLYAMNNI
It counts as functional.

T1 sequence (P11940 whole entry): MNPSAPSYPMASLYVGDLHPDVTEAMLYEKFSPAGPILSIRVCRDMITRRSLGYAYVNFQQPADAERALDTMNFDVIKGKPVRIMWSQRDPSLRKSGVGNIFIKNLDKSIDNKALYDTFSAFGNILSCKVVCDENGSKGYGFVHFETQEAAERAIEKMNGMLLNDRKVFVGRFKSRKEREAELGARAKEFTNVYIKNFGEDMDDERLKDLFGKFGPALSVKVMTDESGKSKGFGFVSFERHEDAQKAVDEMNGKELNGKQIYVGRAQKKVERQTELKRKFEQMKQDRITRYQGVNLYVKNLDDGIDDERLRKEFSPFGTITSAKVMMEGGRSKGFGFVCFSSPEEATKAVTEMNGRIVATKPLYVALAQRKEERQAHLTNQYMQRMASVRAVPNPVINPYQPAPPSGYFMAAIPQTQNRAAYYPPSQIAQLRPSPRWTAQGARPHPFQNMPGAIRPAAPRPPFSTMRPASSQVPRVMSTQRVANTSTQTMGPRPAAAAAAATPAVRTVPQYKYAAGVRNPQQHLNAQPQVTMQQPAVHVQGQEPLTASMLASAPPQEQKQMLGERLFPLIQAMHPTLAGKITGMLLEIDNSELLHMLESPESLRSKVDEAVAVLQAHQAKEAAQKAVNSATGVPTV

With `C[C@@H]1CN([C@H](C)CO)C(=O)Cc2cc(NS(=O)(=O)c3ccc(Cl)cc3)ccc2O[C@@H]1CN(C)Cc1ccc(Cl)c(Cl)c1`, the AC50 in assay [1] was 3.44 µM (active).

Consider `COc1nccnc1NS(=O)(=O)c1ccc(NC(=S)NC(=O)c2ccc(F)cc2)cc1`, for which the IC50 in assay [2] and in assay [3] was > 66 µM (inactive) throughout.

In the case of `C[C@@H]1CN([C@H](C)CO)C(=O)c2cccc(NS(=O)(=O)c3cccs3)c2O[C@@H]1CN(C)C(=O)Nc1ccc(C(F)(F)F)cc1`, in assay [1], the half-maximal activity concentration (AC50) was 8.07 µM (active).

For the compound `O=C(NCc1ccccc1Cl)c1ccc2[nH]cnc2c1`, the AC50 at Caspase-6 is 28.1 µM (active).

On to `O=C(Nc1ccccc1[N+](=O)[O-])c1cc(S(=O)(=O)N2CCOCC2)cs1`, for which the cytotoxic concentration (CC50) in the assay on Vero is 18.3 µM (active).

Take `O=C(O)c1ccccc1NS(=O)(=O)c1ccc(NN=Cc2cccc(Cl)c2)c([N+](=O)[O-])c1`: on Caspase-6, the AC50 was 24.5 µM (active).

As for `O=C(CSC1c2ccccc2-c2ccccc21)N/N=C/c1ccccc1O`, the EC50 in “cells [4]” is 12.9 µM (active); in assay [5], 2.55 µM (active); in “cells [6]”, > 350 µM (not active); in assay [7], 9.08 µM (active). The half-maximal activity concentration (AC50) in the assay on INS1 is 2.03 µM (active). Further, the IC50 in assay [2] and in [3] was > 66 µM (inactive) each time.

`CSC1=NC(/C=C/c2ccc(Cl)cc2Cl)=CC(C)(C)N1`: in the assay with Vero, the CC50 was 17.4 µM (active).

As to `COc1ccc(S(=O)(=O)Nc2ccc3c(c2)CC(=O)N([C@@H](C)CO)C[C@H](C)[C@@H](CN(C)Cc2ccc(-c4ccccc4)cc2)O3)cc1`, in [1], the AC50 was 2.07 µM (active).

For `CCN(CC)c1ccc(C(=O)OCC(=O)Nc2sccc2C#N)cc1`, the IC50 at Caspase-3 was 37.3 µM (active); in assay [8], 11.6 µM (active); in assay [9], 11.5 µM (active); in assay [10], 89.1 µM (active).

In the case of `C[C@H]1CN([C@@H](C)CO)C(=O)Cc2cc(NC(=O)Cc3ccccc3)ccc2O[C@H]1CN(C)Cc1ccc(-c2ccccc2)cc1`, in assay [1], the AC50 was 2.79 µM (active).

Consider `COc1ccc(-c2nc3cnccn3c2NC(C)(C)CC(C)(C)C)cc1O`, for which, in the assay with Vero, the cytotoxic concentration (CC50) is > 25 µM (active).

Take `NC(=S)N=Nc1c(O)[nH]c2cc(F)c(F)cc12`: the CC50 in [11] was 40 µM (active). Moreover, the IC50 was > 20 µM (inactive) in assay [12], > 66 µM (inactive) in [2] and > 66 µM (inactive) in [3].

Take `Fc1cccc2sc(N3CCCCC3)nc12`: the IC50 at Caspase-3 was 10.7 µM (active); in assay [8], 7.98 µM (active); in assay [9], 30.3 µM (active); in assay [10], 60.5 µM (active).

As to `C[C@H]1CN([C@@H](C)CO)C(=O)c2cc(NC(=O)Nc3ccc(C(F)(F)F)cc3)ccc2O[C@H]1CN(C)Cc1ccc2c(c1)OCO2`, the AC50 in assay [1] was 4.18 µM (active).

Regarding `C[C@@H]1CN([C@H](C)CO)C(=O)c2cc(NC(=O)Nc3cccc4ccccc34)ccc2O[C@H]1CN(C)Cc1ccc(-c2ccccc2)cc1`, the AC50 in [1] is 2.17 µM (active).

Regarding `CCSc1nc(=S)n(-c2ccccc2)c(C)c1C(C)=O`, the IC50 in assay [2] and in assay [3] was > 66 µM (inactive) in each case.

In the case of `COc1ccc(CNC(=O)CN(Cc2ccc(Cl)cc2)C(=O)c2csnn2)cc1`, the IC50 in [2] and in assay [3] was > 66 µM (inactive) each time.

The values above are taken from ChEMBL document CHEMBL1201862, “PubChem BioAssay data set” (2004).
